Here are results for one compound from patent US5858738A, “Ermophilane sesquiterpenoids as HIV intergrase inhibitors” (Merck & Co., Inc., priority 1997, dated 1999).

Test [1] concerns the target T1, HIV Integrase/donor (HIV) DNA complexes (Human immunodeficiency virus type 1 group M subtype B, UniProt P04585).
T1 construct: strand transfer by HIV integrase
As to the kind of experiment: Assay for Assembly of HIV Integrase/donor (HIV) DNA Complexes. The following applies: inhibition of assembly or binding to immobilized donor (HIV) DNA; inhibitor 0.1 to 100 μM. Here is the method: Assay for Assembly of HIV Integrase/donor (HIV) DNA Complexes
An assay measuring the binding of HIV Integrase to immobilized donor (HIV) DNA was conducted according to Wolfe, A. L. et al., J. Virol. 70, 1424 (1996), herein incorporated by reference for these purposes. To assay inhibition of such assembly or binding, the reaction was conducted with inhibitor having various concentrations in the range of 0.1 to 100 μM. Results follow.

Another test concerns the target T2, HIV-1 integrase (Human immunodeficiency virus type 1 group M subtype B, UniProt P04585).
T2 construct: HIV-1 integrase
As to the kind of experiment: HIV Integrase Substrate Cleavage and Integration Assay (trimming of the 3' end of HIV long terminal repeat terminus). The test is classed as biochemical. As to conditions: inhibition of HIV integrase substrate cleavage; inhibitor 0.1 to 100 μM. Here is the method:
HIV Integrase Substrate Cleavage and Integration Assay
An assay for trimming of the 3' end of HIV long terminal repeat terminus by HIV-1 integrase was conducted according to LaFemina, R. L. et al., J. Virol 10, 5624 (1991), herein incorporated by reference for these purposes. To assay inhibition of HIV integrase substrate cleavage, the reaction was conducted with inhibitor having various concentrations in the range of 0.1 to 100 μM.

The target in the next test is T3, HIV integrase (Human immunodeficiency virus type 1 group M subtype B, UniProt P04585).
T3 construct: strand transfer by HIV integrase
As to the kind of experiment: Strand Transfer Assay for HIV Integrase (ligation of processed donor (HIV) DNA to nicked host DNA). The test is classed as biochemical. As to conditions: inhibition of strand transfer; inhibitor 0.1 to 100 μM. Here is the method: Strand Transfer Assay for HIV Integrase
A microtiter assay for ligation of processed donor (HIV) DNA to unspecific, nicked host DNA was conducted according to Hazuda, D. J. et al., Nucl. Acids, Res. 22, 1121 (1994), herein incorporated by reference for these purposes. To assay inhibition of such strand transfer by HIV integrase, the reaction was conducted with inhibition having various concentrations in the range of 0.1 to 100 μM.

In general, IC50 refers to the concentration that inhibits the measured activity by half.

As for `C=C(C=O)C1CC2(C)C(=CC1=O)C(OC(=O)C(C)=CC(C)CCCC)CCC2C(=O)O` (stereo not drawn) [Compound A], the IC50 is 10 µM in test [1], 5 to 10 µM at HIV-1 integrase and 5 to 10 µM against HIV integrase.
